The subject of data set [1] is Saccharomyces cerevisiae. As to the kind of experiment: Antifungal activity against Saccharomyces cerevisiae SC XH1549 cultured in YNB media after 48 hrs by broth microdilution method. The format is functional. Particulars: SC XH1549, 48 h.
In data set [2] the test system is Candida parapsilosis. As to the kind of experiment: Antifungal activity against Candida parapsilosis ATCC 22019 cultured in YNB media after 48 hrs by broth microdilution method. As to conditions: Lodderomyces parapsilosis, ATCC 22019, 48 h. The format is functional. (In broth dilution the organism is exposed to a series of concentrations in liquid medium.)
For data set [3], the system named is Candida albicans. The data set is described as follows: Antifungal activity against fluconazole-resistant Candida albicans isolate 17 cultured in YNB media after 72 hrs by broth microdilution method. The data set is classed as functional. As to conditions: isolate 17, 72 h.
In data set [4] the test system is Saccharomyces cerevisiae. As to the kind of experiment: Antifungal activity against Saccharomyces cerevisiae SC XH1549 cultured in YNB media after 72 hrs by broth microdilution method. The data set is classed as functional. Particulars: SC XH1549, 72 h.
Data set [5] deals with Candida albicans. The data set is described as follows: Antifungal activity against fluconazole-resistant Candida albicans isolate 17 cultured in YNB media after 24 hrs by broth microdilution method. Particulars: isolate 17, 24 h. The format is functional.
Data set [6] has as its system Candida parapsilosis. The data set is described as follows: Antifungal activity against Candida parapsilosis ATCC 22019 cultured in YNB media after 72 hrs by broth microdilution method. The format is functional. Particulars: Lodderomyces parapsilosis, ATCC 22019, 72 h.
The test system of data set [7] is Candida albicans. The data set is described as follows: Antifungal activity against fluconazole-resistant Candida albicans isolate 17 cultured in YNB media after 48 hrs by broth microdilution method. The format is functional. Particulars: isolate 17, 48 h.
In data set [8] the test system is Candida albicans. As to the kind of experiment: Antifungal activity against fluconazole-resistant Candida albicans isolate g5 cultured in YNB media after 72 hrs by broth microdilution method. The data set is classed as functional. As to conditions: isolate g5, 72 h.
The test system of data set [9] is Candida albicans. As to the kind of experiment: Antifungal activity against Candida albicans SC5314 cultured in YNB media after 48 hrs by broth microdilution method. As to conditions: SC5314, 48 h. The data set is classed as functional.
For data set [10], the system named is Candida albicans. As to the kind of experiment: Antifungal activity against fluconazole-resistant Candida albicans isolate g5 cultured in YNB media after 24 hrs by broth microdilution method. As to conditions: isolate g5, 24 h. The format is functional.
Data set [11] concerns Candida albicans. As to the kind of experiment: Antifungal activity against Candida albicans SC5314 cultured in YNB media after 24 hrs by broth microdilution method. The format is functional. As to conditions: SC5314, 24 h.
In data set [12] the test system is Candida parapsilosis. As to the kind of experiment: Antifungal activity against Candida parapsilosis ATCC 22019 cultured in YNB media after 24 hrs by broth microdilution method. The format is functional. Particulars: Lodderomyces parapsilosis, ATCC 22019, 24 h.
For data set [13], the system named is Candida albicans. As to the kind of experiment: Antifungal activity against fluconazole-resistant Candida albicans isolate g5 cultured in YNB media after 48 hrs by broth microdilution method. The data set is classed as functional. As to conditions: isolate g5, 48 h.
For data set [14], the system named is Candida albicans. The data set is described as follows: Ratio of MIC for Candida albicans SC5314 cultured in RPMI 1640 media to MIC for Candida albicans SC5314 cultured in YNB media. The format is functional.
Data set [15] has as its system Candida albicans. The data set is described as follows: Antifungal activity against Candida albicans SC5314 cultured in YNB media after 72 hrs by broth microdilution method. Particulars: SC5314, 72 h. The format is functional.
The subject of data set [16] is Saccharomyces cerevisiae. As to the kind of experiment: Antifungal activity against Saccharomyces cerevisiae SC XH1549 cultured in YNB media after 24 hrs by broth microdilution method. The data set is classed as functional. Particulars: SC XH1549, 24 h.
Data set [17] has as its system Candida albicans. As to the kind of experiment: Antifungal activity against Candida albicans SC5314 cultured in RPMI 1640 media after 24 hrs by broth microdilution method. The data set is classed as functional. As to conditions: SC5314, 24 h.
Data set [18] is described as follows: Inhibition of Candida albicans AHAS catalytic subunit using pyruvate as substrate measured after 30 mins by colorimetric method.
Data set [19] relates to Candida albicans. As to the kind of experiment: Antifungal activity against Candida albicans SC5314 infected in Caenorhabditis elegans assessed as mortality at 20 nM after 24 hrs by propidium iodide staining based fluorescence microscopic analysis (reference value: 17%). The data set is classed as functional.
A short description of data set [20]: Toxicity in po dosed rat. The data set is classed as organism-based. As to conditions: in vivo.
A short description of data set [21]: Toxicity in topically applied rabbit. Also on record: species or system Oryctolagus cuniculus. Particulars: in vivo, topical or ocular.

The record followed here is ChEMBL document CHEMBL4382231, “Chemical preparation, biological evaluation and 3D-QSAR of ethoxysulfuron derivatives as novel antifungal agents targeting acetohydroxyacid synthase” (Eur J Med Chem, 2019).

In brackets after ≈: the same amount, converted by molar mass.

Take `COc1cc(OC)nc(NC(=O)[N-]S(=O)(=O)Oc2ccccc2OCCI)n1.[Na+]`: the minimal inhibitory concentration (MIC) was over 80 µg/mL in the data set on Saccharomyces cerevisiae [1]; 20 µg/mL in the data set with Candida parapsilosis [2]; 20 µg/mL in the data set on Candida albicans [3]; over 80 µg/mL in the data set on Saccharomyces cerevisiae [4]; 5 µg/mL in the data set with Candida albicans [5]; 20 µg/mL with Candida parapsilosis [6]. Besides, the MIC is 10 µg/mL in the data set with Candida albicans [7]; 20 µg/mL in the data set on Candida albicans [8]; 5 µg/mL with Candida albicans [9]; 5 µg/mL with Candida albicans [10]; 2.5 µg/mL with Candida albicans [11]; 5 µg/mL in the data set on Candida parapsilosis [12]. In addition, the MIC against Candida albicans [13] turned out to be 10 µg/mL; in the data set on Candida albicans [15], 10 µg/mL; in the data set with Saccharomyces cerevisiae [16] it was 80 µg/mL; in the data set on Candida albicans [17] it was 50 µg/mL. Further, in the data set on Candida albicans [14], the “Ratio IC50” value came out at 20. This compound gave a Ki in [18] of 125 nM. The pKi in data set [18] was found to be 6.9.
As to `CCOc1ccccc1OS(=O)(=O)NC(=O)Nc1nc(OC)cc(OC)n1` [ETHOXYSULFURON], the MIC amounted to 5 µg/mL (≈ 12.6 µM) against Saccharomyces cerevisiae [1]; 2.5 µg/mL (≈ 6.28 µM) with Candida parapsilosis [2]; 2.5 µg/mL (≈ 6.28 µM) in the data set on Candida albicans [3]; 5 µg/mL (≈ 12.6 µM) against Saccharomyces cerevisiae [4]; 1.25 µg/mL (≈ 3.14 µM) against Candida albicans [5]; 2.5 µg/mL (≈ 6.28 µM) with Candida parapsilosis [6]. The MIC against Candida albicans [7] stood at 2.5 µg/mL (≈ 6.28 µM); against Candida albicans [8], 2.5 µg/mL (≈ 6.28 µM); in the data set on Candida albicans [9], 1.25 µg/mL (≈ 3.14 µM); against Candida albicans [10] it was 1.25 µg/mL (≈ 3.14 µM); against Candida albicans [11], 0.625 µg/mL (≈ 1.57 µM); against Candida parapsilosis [12], 1.25 µg/mL (≈ 3.14 µM). Moreover, the MIC is 1.25 µg/mL (≈ 3.14 µM) against Candida albicans [13], 1.25 µg/mL (≈ 3.14 µM) against Candida albicans [15], 5 µg/mL (≈ 12.6 µM) against Saccharomyces cerevisiae [16] and 12.5 µg/mL (≈ 31.4 µM) in the data set on Candida albicans [17]. Moreover, the Activity in the data set on Candida albicans [19] was determined as 3%. In [18], the affinity, expressed as Ki, was 21.6 nM. Besides, in [18], the pKi amounted to 7.66.
For `CCOC(=O)c1ccccc1OS(=O)(=O)[N-]C(=O)Nc1nc(OC)cc(OC)n1.[Na+]`, the MIC in the data set on Saccharomyces cerevisiae [1] is 5 µg/mL; in the data set with Candida parapsilosis [2] it was 2.5 µg/mL; against Candida albicans [3], 5 µg/mL; with Saccharomyces cerevisiae [4], 5 µg/mL; against Candida albicans [5] it was 2.5 µg/mL; with Candida parapsilosis [6], 2.5 µg/mL. Besides, the MIC in the data set on Candida albicans [7] worked out at 5 µg/mL; in the data set with Candida albicans [8] it was 2.5 µg/mL; with Candida albicans [9], 2.5 µg/mL; in the data set with Candida albicans [10], 2.5 µg/mL; in the data set with Candida albicans [11] it was 1.25 µg/mL; against Candida parapsilosis [12], 1.25 µg/mL. Further, the minimal inhibitory concentration (MIC) against Candida albicans [13] was 2.5 µg/mL; against Candida albicans [15], 2.5 µg/mL; against Saccharomyces cerevisiae [16], 2.5 µg/mL; against Candida albicans [17], 25 µg/mL. The Activity with Candida albicans [19] is on record as 7%. Further, the “Ratio IC50” value in the data set with Candida albicans [14] stood at 20. Moreover, the Ki in [18] is 6.7 nM. In data set [18], this compound yielded a negative-log Ki (pKi) of 8.17.
For the compound `CCOC(=O)c1ccccc1S(=O)(=O)NC(=O)Nc1nc(Cl)cc(OC)n1` [CHLORIMURON ETHYL], the LD50 was over 4000 mg/kg in data set [20] and over 2000 mg/kg in data set [21]. The Activity in the data set with Candida albicans [19] was 8%.

In general, MIC refers to the smallest concentration in the dilution series that meets the test's criterion for growth inhibition. Low readings indicate a more susceptible organism, high ones a less susceptible organism. As usually defined, the Ki is the dissociation constant of the complex between target and ligand, obtained from inhibition or displacement. A lower Ki goes with a stronger hold on the target. One may read the pKi as the Ki on a negative log10 scale, so that one unit is a factor of ten. Usually LD50 stands for the dose expected to kill half of the subjects tested. Low values mean a more toxic substance, high ones a less toxic substance.
